Data: the supplement of paper PMC6331611
In brackets after ≈: the same amount, converted by molar mass. Where a name gives a salt, the structure may show the parent alone.

Tests used:
[1] = system: Salmonella enterica serovar Typhimurium SL1344
[2] = system: Salmonella enterica serovar Typhimurium SL1344; test: intracellular MIC (10-fold luminescence reduction); higher = less potent; conditions: RAW264.7 macrophages
RAW264.7 = test: cytotoxicity (LDH release relative to maximum lysis); higher = more toxic; conditions: 50 µM; 2 h

| Compound | MIC ([1]; LPM pH 5.8) [µM] | MIC ([1]; MHB) [µM] | MIC ([1]; MOPS glucose minimal medium) [µM] | intracellular MIC [2] [µM] | cytotoxicity (RAW264.7) [%] |
| --- | --- | --- | --- | --- | --- |
| O=S(=O)(O)NC1CCCCC1 [CYCLAMIC ACID] | > 50 | > 50 | > 50 | > 50 | 7.97 |
| C[C@H]1c2cccc(O)c2C(=O)C2=C(O)[C@]3(O)C(=O)C(C(N)=O)=C(O)[C@@H](N(C)C)[C@@H]3[C@@H](O)[C@@H]21 [DOXYCYCLINE HYDROCHLORIDE] | 1.56 | 6.25 | 6.25 | ≤ 0.78 | 8.01 |
| CC[C@H]1OC(=O)[C@H](C)[C@@H](O[C@H]2C[C@@](C)(OC)[C@@H](O)[C@H](C)O2)[C@H](C)[C@@H](O[C@@H]2O[C@H](C)C[C@H](N(C)C)[C@H]2O)[C@](C)(O)C[C@@H](C)CN(C)[C@H](C)[C@@H](O)[C@]1(C)O [AZITHROMYCIN] | ≤ 0.78 | ≤ 0.78 | ≤ 0.78 | ≤ 0.78 | 21.1 |
| C[C@]12CC[C@@H]3c4ccc(OC(=O)c5ccccc5)cc4CC[C@H]3[C@@H]1CC[C@@H]2O [ESTRADIOL BENZOATE] | > 50 | > 50 | > 50 | > 50 | 20.3 |
| COC(=O)N/N=C/c1c[n+]([O-])c2ccccc2[n+]1[O-] [CARBADOX] | 25 (≈ 6.56 µg/mL) | > 50 | 50 (≈ 13.1 µg/mL) | ≤ 0.78 | 15.6 |
| [O-][n+]1ccccc1[S-].[O-][n+]1ccccc1[S-].[Zn+2] [PYRITHIONE ZINC] | ≤ 0.78 | 3.13 | 3.13 | 3.13 | 84.4 |
| Nc1ccncc1 [FAMPRIDINE] | > 50 | > 50 | > 50 | > 50 | 20.4 |
| Oc1c(Cl)cc(Cl)c2cccnc12 [CHLOROXINE] | ≤ 0.78 | 25 (≈ 5.35 µg/mL) | 25 (≈ 5.35 µg/mL) | > 50 | 20.5 |
| CN1CCC(=C2c3ccccc3C=Cc3ccccc32)CC1 [CYPROHEPTADINE HYDROCHLORIDE] | > 50 | > 50 | > 50 | > 50 | 6.22 |
| C=CC1=C(C(=O)O)N2C(=O)[C@@H](NC(=O)/C(=N\O)c3csc(N)n3)[C@H]2SC1 [CEFDINIR] | ≤ 0.78 | ≤ 0.78 | ≤ 0.78 | > 50 | 19.4 |
| Oc1c(I)cc(Cl)c2cccnc12 [CLIOQUINOL] | ≤ 0.78 | 50 (≈ 15.3 µg/mL) | 50 (≈ 15.3 µg/mL) | > 50 | 20 |
| CN(C)C(=O)Oc1ccc[n+](C)c1 [PYRIDOSTIGMINE BROMIDE] | > 50 | > 50 | > 50 | > 50 | 6.09 |
| CCCCC(=O)O[C@]1(C(=O)CO)[C@@H](C)C[C@H]2[C@@H]3CCC4=CC(=O)C=C[C@]4(C)[C@@]3(F)[C@@H](O)C[C@@]21C [BETAMETHASONE VALERATE] | > 50 | > 50 | > 50 | 12.5 | 6.63 |
| CN(C)[C@@H]1C(O)=C(C(N)=O)C(=O)[C@@]2(O)C(O)=C3C(=O)c4c(O)ccc(Cl)c4[C@@H](O)[C@H]3C[C@@H]12 [DEMECLOCYCLINE HYDROCHLORIDE] | ≤ 0.78 | 6.25 | 1.56 | ≤ 0.78 | 8.71 |
| CC1CCc2cc(F)cc3c(=O)c(C(=O)O)cn1c23 (stereo not given) [FLUMEQUINE] | ≤ 0.78 | 6.25 (≈ 1.63 µg/mL) | 1.56 (≈ 0.408 µg/mL) | > 50 | 20.1 |
| CO/N=C(\C(=O)N[C@@H]1C(=O)N2C(C(=O)O)=C(COC(C)=O)CS[C@H]12)c1csc(N)n1 [CEFOTAXIME SODIUM] | ≤ 0.78 | ≤ 0.78 | ≤ 0.78 | ≤ 0.78 | 7.17 |
| Oc1c(Br)cc(Br)c2cccnc12 [BROXYQUINOLINE] | ≤ 0.78 | 50 (≈ 15.1 µg/mL) | 50 (≈ 15.1 µg/mL) | > 50 | 15 |
| CO/N=C(\C(=O)N[C@@H]1C(=O)N2C(C(=O)O)=C(CSC(=O)c3ccco3)CS[C@H]12)c1csc(N)n1 [CEFTIOFUR HYDROCHLORIDE] | ≤ 0.78 | ≤ 0.78 | ≤ 0.78 | ≤ 0.78 | 15.6 |
| Nc1ncn([C@@H]2O[C@H](CO)[C@@H](O)[C@H]2O)c(=O)n1 [AZACITIDINE] | ≤ 0.78 | 25 (≈ 6.11 µg/mL) | ≤ 0.78 | ≤ 0.78 | 16.4 |

The next lines start with results.

| MIC ([1]; LPM pH 5.8) [µM] | MIC ([1]; MHB) [µM] | MIC ([1]; MOPS glucose minimal medium) [µM] | intracellular MIC [2] [µM] | Compound | cytotoxicity (RAW264.7) [%] |
| --- | --- | --- | --- | --- | --- |
| > 50 | > 50 | > 50 | > 50 | CCCCC(=O)N(Cc1ccc(-c2ccccc2-c2nnn[nH]2)cc1)[C@H](C(=O)O)C(C)C [VALSARTAN] | 6.04 |
| 50 (≈ 16.9 µg/mL) | > 50 | > 50 | 1.56 | CCCCCCCCNC(C)C(O)c1ccc(SC(C)C)cc1 (stereo not given) [SULOCTIDIL] | 33.3 |
| 25 (≈ 8.49 µg/mL) | > 50 | > 50 | > 50 | CCCCC(CC)CN1CN(CC(CC)CCCC)CC(C)(N)C1 (stereo not given) [HEXETIDINE] | 49.5 |
| > 50 | > 50 | > 50 | ≤ 0.78 | CNC[C@H](O)c1cccc(O)c1 [PHENYLEPHRINE HYDROCHLORIDE] | 6.89 |
| ≤ 0.78 | ≤ 0.78 | ≤ 0.78 | ≤ 0.78 | C[C@@H]1CN(c2c(F)c(N)c3c(=O)c(C(=O)O)cn(C4CC4)c3c2F)C[C@H](C)N1 [SPARFLOXACIN] | 16.6 |
| ≤ 0.78 | ≤ 0.78 | ≤ 0.78 | ≤ 0.78 | C[C@H]1COc2c(C3(N)CC3)c(F)cc3c(=O)c(C(=O)O)cn1c23 [PAZUFLOXACIN MESYLATE] | 12.2 |
| ≤ 0.78 | 3.13 (≈ 1.13 µg/mL) | 1.56 (≈ 0.562 µg/mL) | 1.56 | CC1CCc2c(N3CCC(O)CC3)c(F)cc3c(=O)c(C(=O)O)cn1c23 (stereo not given) [NADIFLOXACIN] | 12.7 |
| 1.56 (≈ 0.498 µg/mL) | ≤ 0.78 | ≤ 0.78 | 1.56 | CCn1cc(C(=O)O)c(=O)c2cc(F)c(N3CCNCC3)cc21 [NORFLOXACIN] | 8.22 |
| ≤ 0.78 | 25 (≈ 5.81 µg/mL) | 6.25 (≈ 1.45 µg/mL) | > 50 | CCn1cc(C(=O)O)c(=O)c2ccc(C)nc21 [NALIDIXIC ACID] | 16 |
| ≤ 0.78 | > 50 | 25 (≈ 12.5 µg/mL) | 25 | C/C(=C\C(=O)OCCCCCCCCC(=O)O)C[C@@H]1OC[C@H](C[C@@H]2O[C@H]2[C@@H](C)[C@H](C)O)[C@@H](O)[C@H]1O [MUPIROCIN] | 15.4 |
| 3.13 (≈ 1.2 µg/mL) | 12.5 (≈ 4.79 µg/mL) | 6.25 (≈ 2.4 µg/mL) | 3.13 | C[C@@H](O)[C@H]1C(=O)N2C(C(=O)O)=C(S[C@@H]3CN[C@H](C(=O)N(C)C)C3)[C@H](C)[C@H]12 [MEROPENEM] | 14.9 |
| 6.25 | 1.56 | ≤ 0.78 | ≤ 0.78 | CN1CCN(c2c(F)cc3c(=O)c(C(=O)O)cn4c3c2SCC4)CC1 [RUFLOXACIN HYDROCHLORIDE] | 13.3 |
| > 50 | ≤ 0.78 | 6.25 (≈ 2.49 µg/mL) | ≤ 0.78 | OC[C@H]1O[C@H](O[C@]2(CCl)O[C@H](CCl)[C@@H](O)[C@@H]2O)[C@H](O)[C@@H](O)[C@H]1Cl [SUCRALOSE] | 15 |
| 3.13 (≈ 2.58 µg/mL) | 50 (≈ 41.1 µg/mL) | 25 (≈ 20.6 µg/mL) | ≤ 0.78 | CO[C@H]1/C=C/O[C@@]2(C)Oc3c(C)c(O)c4c(O)c(c(/C=N/N5CCN(C)CC5)c(O)c4c3C2=O)NC(=O)/C(C)=C\C=C\[C@H](C)[C@H](O)[C@@H](C)[C@@H](O)[C@@H](C)[C@H](OC(C)=O)[C@@H]1C [RIFAMPIN] | 8.58 |
| > 50 | > 50 | > 50 | > 50 | CCCCc1nc(Cl)c(CO)n1Cc1ccc(-c2ccccc2-c2nnn[nH]2)cc1 [LOSARTAN] | 5.92 |
| 6.25 (≈ 4.91 µg/mL) | 12.5 (≈ 9.82 µg/mL) | 25 (≈ 19.6 µg/mL) | 12.5 | CO[C@H]1/C=C/O[C@@]2(C)Oc3c(C)c(O)c4c(O)c(c5c(nc6cc(C)ccn65)c4c3C2=O)NC(=O)/C(C)=C\C=C\[C@H](C)[C@H](O)[C@@H](C)[C@@H](O)[C@@H](C)[C@H](OC(C)=O)[C@@H]1C [RIFAXIMIN] | 6.48 |
| ≤ 0.78 | ≤ 0.78 | ≤ 0.78 | ≤ 0.78 | Cc1cc(CC(C)CC(C)(C)C)n(O)c(=O)c1 (stereo not given) [PIROCTONE OLAMINE] | 20.8 |
| 3.13 (≈ 0.909 µg/mL) | ≤ 0.78 | ≤ 0.78 | ≤ 0.78 | COc1cc(Cc2cnc(N)nc2N)cc(OC)c1OC [TRIMETHOPRIM] | 19.9 |
| 3.13 (≈ 1.24 µg/mL) | 3.13 (≈ 1.24 µg/mL) | ≤ 0.78 | ≤ 0.78 | C[C@@H]1CN(c2c(F)c(F)c3c(=O)c(C(=O)O)cn(C4CC4)c3c2F)C[C@H](C)N1 [ORBIFLOXACIN] | 15.3 |
